# Experimental data published in patent US4933157A, “Radioiodinated arylaliphatic ether analogues of cholesterol” (The University of Michigan, priority 1988, dated 1990).
# Where two headings read alike, the source gives them in different places.
# Assays:
# [1] = Polyacrylamide gel electrophoresis of rat plasma (plasma level studies); format: in vivo, female Sprague Dawley rats
# [2] = Tissue distribution of radioactivity following IV administration of radioiodinated cholesteryl ethers to female rats; format: in vivo, female Sprague Dawley rats
# Protocol: (§1) The labelled compounds ([…] ^125 I) were administered intravenously in a 2% Tween-20-saline vehicle. At various times following administration, the animals were sacrificed, and selected tissue samples were removed. The tissue samples were weighed and placed in cellulose acetate capsules. The radioactivity was then counted (85%) efficiency using a well scintillation counter (Searle 1185). The results from selected tissue samples are shown below in Tables 1 and 2. The tissue distribution of the selected cholesteryl ether is expressed as percent Kg dose per g of tissue after 30 minutes (Table 1) and after 24 hours (Table 2).
# [3] = in vivo; cited from earlier work
# [4] = Protocol: Female Sprague Dawley rats were injected with a radio-iodinated arylaliphatic cholesteryl ether analogue (^125 I) solubilized in a suitable transport agent, such as 2% Tween 20-saline. After a predetermined time period, blood samples were drawn from the rats. The plasma was separated from the red blood cells and mixed with a suitable dye (Sudan Black or Sudan Blue). The plasma samples were then subjected to polyacrylamide gel electrophoresis to separate the various fractions. The radioactivity of the various fractions were measured with a gamma counter. […] The data is expressed as a percent of total radioactivity in the gel.
# Guinea pigs have a greater concentration of low density lipoproteins in their blood plasma than rats.
# [5] = Tissue distribution of radioactivity following IV administration to male guinea pigs; format: in vivo, male Hartley guinea pigs
# Protocol: as §1
SMILES,Gel fraction: Albumin ([1]; 30 minutes),Gel fraction: Below Alb ([1]; 30 minutes),Gel fraction: HDL Band (high density lipoproteins) ([1]; 30 minutes),Gel fraction: LDL Band (low density lipoproteins) ([1]; 30 minutes),Gel fraction: Stacking Gel ([1]; 30 minutes),Gel fraction: Albumin ([1]; 24 hours),Gel fraction: Below Alb ([1]; 24 hours),Gel fraction: HDL Band ([1]; 24 hours),Gel fraction: Stacking Gel ([1]; 24 hours),Tissue distribution of radioactivity: Adrenal ([2]; 30 minutes),Tissue distribution of radioactivity: Blood ([2]; 30 minutes),Tissue distribution of radioactivity: Liver ([2]; 30 minutes),Tissue distribution of radioactivity: Ovary ([2]; 30 minutes),Tissue distribution of radioactivity: Thyroid ([2]; 30 minutes),Tissue distribution of radioactivity: Adrenal ([2]; 24 hours),Tissue distribution of radioactivity: Blood ([2]; 24 hours),Tissue distribution of radioactivity: Liver ([2]; 24 hours),Tissue distribution of radioactivity: Ovary ([2]; 24 hours),Tissue distribution of radioactivity: Thyroid ([2]; 24 hours),further results
"CC(C)CCC[C@@H](C)[C@H]1CC[C@H]2[C@@H]3CC=C4C[C@@H](OCCCCCCCCCCCCc5cccc([125I])c5)CC[C@]4(C)[C@H]3CC[C@]12C [m-Iodophenyldodecyl, 12-(m-iodophenyl)dodecyl cholesteryl ether]",1.1 ± 0.2 % OF TOTAL RADIOACTIVITY IN GEL,0.5 ± 0.1 % OF TOTAL RADIOACTIVITY IN GEL,45.7 ± 3.2 % OF TOTAL RADIOACTIVITY IN GEL,31.2 ± 4.0 % OF TOTAL RADIOACTIVITY IN GEL,21.6 ± 5.8 % OF TOTAL RADIOACTIVITY IN GEL,3.4 ± 0.7 % OF TOTAL RADIOACTIVITY IN GEL,4.9 ± 1.3 % OF TOTAL RADIOACTIVITY IN GEL,66.2 ± 2.6 % OF TOTAL RADIOACTIVITY IN GEL,11.6 ± 1.3 % OF TOTAL RADIOACTIVITY IN GEL,1.307 ± 0.177 % KG DOSE/G OF TISSUE,1.250 ± 0.067 % KG DOSE/G OF TISSUE,0.829 ± 0.121 % KG DOSE/G OF TISSUE,0.936 ± 0.136 % KG DOSE/G OF TISSUE,0.486 ± 0.085 % KG DOSE/G OF TISSUE,3.063 ± 0.305 % KG DOSE/G OF TISSUE,0.085 ± 0.002 % KG DOSE/G OF TISSUE,1.779 ± 0.247 % KG DOSE/G OF TISSUE,4.528 ± 0.816 % KG DOSE/G OF TISSUE,6.047 ± 0.760 % KG DOSE/G OF TISSUE,Gel fraction: LDL Band ([1]; 24 hours): 14.0 ± 1.0 % OF TOTAL RADIOACTIVITY IN GEL
"CC(C)CCC[C@@H](C)[C@H]1CC[C@H]2[C@@H]3C[C@@H](C[131I])C4=C(CC[C@H](O)C4)[C@H]3CC[C@]12C [NP-59, 6-b-iodomethyl-19-norcholest-5[10]en-3b-ol]",,,,,,,,,,,,,,,,,,,,metabolic loss of iodine and accumulation in the thyroid [3]: subject to metabolic loss of iodine and resulting accumulation of this iodine in the thyroid; uptake into the adrenal glands [3]: extremely slow
"CC(C)CCC[C@@H](C)[C@H]1CC[C@H]2[C@@H]3CC=C4C[C@@H](OCc5cccc([125I])c5)CC[C@]4(C)[C@H]3CC[C@]12C [m-Iodobenzyl, m-iodobenzyl cholesteryl ether]",0.3 ± 0.1 % OF TOTAL RADIOACTIVITY IN GEL,0.0 ± 0.0 % OF TOTAL RADIOACTIVITY IN GEL,53.3 ± 2.2 % OF TOTAL RADIOACTIVITY IN GEL,41.0 ± 3.5 % OF TOTAL RADIOACTIVITY IN GEL,5.4 ± 2.5 % OF TOTAL RADIOACTIVITY IN GEL,1.1 ± 0.2 % OF TOTAL RADIOACTIVITY IN GEL,0.5 ± 0.1 % OF TOTAL RADIOACTIVITY IN GEL,45.7 ± 3.2 % OF TOTAL RADIOACTIVITY IN GEL,21.6 ± 5.8 % OF TOTAL RADIOACTIVITY IN GEL,1.347 ± 0.289 % KG DOSE/G OF TISSUE,0.985 ± 0.127 % KG DOSE/G OF TISSUE,1.414 ± 0.176 % KG DOSE/G OF TISSUE,0.635 ± 0.036 % KG DOSE/G OF TISSUE,0.133 ± 0.018 % KG DOSE/G OF TISSUE,3.755 ± 0.362 % KG DOSE/G OF TISSUE,0.070 ± 0.006 % KG DOSE/G OF TISSUE,2.607 ± 0.072 % KG DOSE/G OF TISSUE,1.924 ± 0.301 % KG DOSE/G OF TISSUE,1.307 ± 0.150 % KG DOSE/G OF TISSUE,"Gel fraction: LDL Band ([4]; guinea pig plasma, IV, 24 hr): 72.2 ± 2.0 % OF TOTAL RADIOACTIVITY IN GEL; dose associated with the low density lipoproteins ([4]; guinea pig, in vivo): greater than 70 % of the dose; Tissue distribution of radioactivity: Adrenal ([5]; 30 min): 0.360 ± 0.019 % KG DOSE/G OF TISSUE; Tissue distribution of radioactivity: Blood ([5]; 30 min): 0.799 ± 0.041 % KG DOSE/G OF TISSUE; Tissue distribution of radioactivity: Liver ([5]; 30 min): 0.643 ± 0.044 % KG DOSE/G OF TISSUE; Tissue distribution of radioactivity: Testes ([5]; 30 min): 0.025 ± 0.002 % KG DOSE/G OF TISSUE; Tissue distribution of radioactivity: Thyroid ([5]; 30 min): 0.039 ± 0.002 % KG DOSE/G OF TISSUE; Tissue distribution of radioactivity: Adrenal ([5]; 24 hr): 7.861 ± 0.656 % KG DOSE/G OF TISSUE; Tissue distribution of radioactivity: Blood ([5]; 24 hr): 0.158 ± 0.020 % KG DOSE/G OF TISSUE; Tissue distribution of radioactivity: Liver ([5]; 24 hr): 2.023 ± 0.147 % KG DOSE/G OF TISSUE; Tissue distribution of radioactivity: Testes ([5]; 24 hr): 0.043 ± 0.010 % KG DOSE/G OF TISSUE; Tissue distribution of radioactivity: Thyroid ([5]; 24 hr): 1.546 ± 0.279 % KG DOSE/G OF TISSUE"
